By IC50 is commonly meant the point on the concentration scale where inhibition reaches its midpoint. A word on the melting point: it is the temperature, or range, at which the solid turns liquid.

Structures can show the parent of a compound that is named as a salt. Where two headings read alike, the source gives them in different places.

Data set [1] addresses T1, serotonine (5-HT) reuptake in synaptosomes (Rattus norvegicus, UniProt P31652).
T1 construct: in synaptosomes as described in WO 97/16451; from tissue
Put plainly: In vitro inhibition of serotonine (5-HT) reuptake in synaptosomes. It counts as biochemical. The protocol:
A number of compounds were tested for their ability to inhibit the reuptake of the monoamine neurotransmitters dopamine (DA) noradrenaline (NA) and serotonine (5-HT) in synaptosomes as described in WO 97/16451.
The test values are given as IC50 (the concentration (μM) of the test substance which inhibits the specific binding of ^3H-DA, ^3H-NA, or ^3H-5-HT by 50%).

Data set [2] has as its target T2, dopamine (DA) reuptake in synaptosomes (Rattus norvegicus, UniProt P23977).
T2 construct: in synaptosomes as described in WO 97/16451; from tissue
In words: In vitro inhibition of dopamine (DA) reuptake in synaptosomes. In kind it is biochemical.

The target in data set [3] is T3, noradrenaline (NA) reuptake in synaptosomes (Rattus norvegicus, UniProt Q63380).
T3 construct: in synaptosomes as described in WO 97/16451; from tissue
T3 sequence (Q63380 1-617): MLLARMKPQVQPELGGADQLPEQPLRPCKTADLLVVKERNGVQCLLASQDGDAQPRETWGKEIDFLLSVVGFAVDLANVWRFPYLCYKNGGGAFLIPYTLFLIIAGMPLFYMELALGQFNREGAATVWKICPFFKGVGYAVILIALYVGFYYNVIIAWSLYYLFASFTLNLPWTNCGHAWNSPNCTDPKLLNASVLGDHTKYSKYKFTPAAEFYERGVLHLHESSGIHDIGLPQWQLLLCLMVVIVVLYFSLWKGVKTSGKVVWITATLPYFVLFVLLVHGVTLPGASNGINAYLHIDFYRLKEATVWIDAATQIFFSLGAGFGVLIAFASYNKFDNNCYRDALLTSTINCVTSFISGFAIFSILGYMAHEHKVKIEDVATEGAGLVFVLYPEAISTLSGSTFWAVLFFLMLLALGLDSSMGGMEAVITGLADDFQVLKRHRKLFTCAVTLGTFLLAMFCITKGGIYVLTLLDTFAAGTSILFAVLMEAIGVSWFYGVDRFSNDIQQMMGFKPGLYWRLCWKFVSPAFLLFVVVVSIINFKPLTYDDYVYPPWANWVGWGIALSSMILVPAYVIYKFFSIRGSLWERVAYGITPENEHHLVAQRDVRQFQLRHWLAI
In words: In vitro inhibition of noradrenaline (NA) reuptake in synaptosomes. In kind it is biochemical.

Setting [4] is: synaptosomes, 3H-DA, read-out: DA-uptake IC50.
Where [5] appears, read: synaptosomes, 3H-NA, read-out: NA-uptake IC50.

T1 sequence (P31652 whole entry): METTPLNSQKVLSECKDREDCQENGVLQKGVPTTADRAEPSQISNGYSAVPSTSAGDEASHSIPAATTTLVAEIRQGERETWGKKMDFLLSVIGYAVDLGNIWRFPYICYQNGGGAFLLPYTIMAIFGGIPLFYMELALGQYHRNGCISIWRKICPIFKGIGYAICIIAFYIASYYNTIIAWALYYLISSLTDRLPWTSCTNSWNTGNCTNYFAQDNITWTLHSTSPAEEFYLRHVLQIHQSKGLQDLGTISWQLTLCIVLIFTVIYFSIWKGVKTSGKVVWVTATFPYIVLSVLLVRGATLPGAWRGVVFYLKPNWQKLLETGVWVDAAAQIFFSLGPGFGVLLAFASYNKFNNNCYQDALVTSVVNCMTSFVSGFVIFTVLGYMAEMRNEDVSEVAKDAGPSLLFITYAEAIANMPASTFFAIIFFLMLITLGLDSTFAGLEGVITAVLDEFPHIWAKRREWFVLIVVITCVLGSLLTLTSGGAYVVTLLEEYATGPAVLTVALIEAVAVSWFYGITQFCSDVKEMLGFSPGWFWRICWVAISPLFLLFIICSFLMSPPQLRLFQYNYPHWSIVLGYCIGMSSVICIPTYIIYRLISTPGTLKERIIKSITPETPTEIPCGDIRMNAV
T2 sequence (P23977 whole entry): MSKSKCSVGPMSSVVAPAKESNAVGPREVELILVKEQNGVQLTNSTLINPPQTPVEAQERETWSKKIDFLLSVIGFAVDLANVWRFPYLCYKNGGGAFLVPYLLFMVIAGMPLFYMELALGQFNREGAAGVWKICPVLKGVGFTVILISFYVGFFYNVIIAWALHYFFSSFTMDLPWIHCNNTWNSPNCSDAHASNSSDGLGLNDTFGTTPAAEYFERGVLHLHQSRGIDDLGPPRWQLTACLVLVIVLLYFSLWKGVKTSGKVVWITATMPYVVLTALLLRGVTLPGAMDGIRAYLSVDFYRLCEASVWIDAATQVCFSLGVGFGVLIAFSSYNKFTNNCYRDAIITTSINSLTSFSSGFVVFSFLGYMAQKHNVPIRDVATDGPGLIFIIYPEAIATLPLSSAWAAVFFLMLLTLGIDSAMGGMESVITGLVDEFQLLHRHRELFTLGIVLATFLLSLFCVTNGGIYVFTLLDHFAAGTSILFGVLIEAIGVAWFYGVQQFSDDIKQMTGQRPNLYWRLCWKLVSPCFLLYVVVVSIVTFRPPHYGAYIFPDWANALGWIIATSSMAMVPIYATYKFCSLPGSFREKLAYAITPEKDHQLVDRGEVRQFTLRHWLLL

With `CN1C2CCC1CN(c1ccc3cc([N+](=O)[O-])ccc3n1)C2` [1st compound of method A, 2-(8-Methyl-3,8-diaza-bicyclo[3.2.1]oct-3-yl)-6-nitro-quinoline], the melting point was 152.1 to 154.5 °C. The same compound returned an IC50 in data set [1] of 3.1 nM. In addition, in data set [2] (setting [4]), the IC50 stood at 16000 nM. Also, the IC50 in data set [3] (setting [5]) was 4600 nM.

In the case of `CN1C2CCC1CN(c1ccc3ccccc3n1)C2` [2nd compound of method A, 2-(8-Methyl-3,8-diaza-bicyclo[3.2.1]oct-3-yl)-quinoline], the 50% inhibitory concentration (IC50) in data set [1] is 16 nM; in data set [2] (setting [4]), 1600 nM; in data set [3] (setting [5]) it was 450 nM.

The compound `COc1ccc2cc(N3CC4CCC(C3)N4C)ccc2c1` (as salt: fumaric acid salt) [1st compound of method B, 3-(6-Methoxy-naphthalen-2-yl)-8-methyl-3,8-diaza-bicyclo[3.2.1]octane] showed a melting point of 204 to 206 °C.

On to `COc1ccc2cc(N3CC4CCC(C3)N4C)ccc2c1` [1st compound of method B, 3-(6-Methoxy-naphthalen-2-yl)-8-methyl-3,8-diaza-bicyclo[3.2.1]octane], for which the IC50 in data set [1] (synaptosomes, 3H-5-HT, read-out: 5-HT-uptake IC50) was determined as 20 nM; in data set [2], 56 nM; in data set [3], 20 nM.

Regarding `CN1C2CCC1CN(c1ccc3ccccc3n1)C2` (as salt: fumaric acid salt) [2nd compound of method A, 2-(8-Methyl-3,8-diaza-bicyclo[3.2.1]oct-3-yl)-quinoline], the melting point was in the range of 210 to 212 °C.

For the origin of these results see patent US7704991B2, “Substituted diazabicyclo derivatives and their use as monoamine neurotransmitter re-uptake inhibitors” (Neurosearch A/S, priority 2005, dated 2010).
